Results as given in patent US20060069132A1, “Azolecarboxamide herbicides” (priority 2004, published 2006).

Experiments:
lambsquarters = assay: Test B pre-/postemergence herbicide test; assay type: in vivo, Chenopodium album; details: for Lambsquarters plant response rating: postemergence, visual rating, scale 0 (no effect) to 100 (complete control)
Procedure, shortened: (§1)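 Plants compared with untreated controls 13–15 days post-treatment and given a visual 0–100 injury score. Applications: preemergence to seeds; postemergence at 1- to 4-leaf (2–18 cm); paddy species flooded, 2-leaf stage. Vehicle non-phytotoxic, surfactant included.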

[1] = tested on: small flower umbrella sedge; assay: Test B flooded paddy test; assay type: in vivo, Cyperus difformis; details: 1000 g ai/ha, visual rating, scale 0 to 100 (0 no effect, 100 complete control), 13 to 15 days
Procedure, shortened: (§2)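 Each value is a visual 0–100 response rating taken against controls 13 to 15 days after treatment in the greenhouse. Plants received formulated chemical postemergence at the 1- to 4-leaf stage or, in flooded paddy, at the 2-leaf stage.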

wild oat = assay: Test B postemergence herbicide test; assay type: in vivo, Avena fatua; details: postemergence, visual rating, scale 0 (no effect) to 100 (complete control)
Procedure, shortened: (§3)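 Scale 0–100: zero equals no visible effect, 100 complete control, judged by eye relative to controls. Timing: 13 to 15 days in greenhouse post-treatment. Growth stage at spraying: two leaves (paddy) or one to four leaves, 2–18 cm (postemergence).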

corn = assay: Test B pre-/postemergence herbicide test; assay type: in vivo, Zea mays; details: for Corn plant response rating: postemergence, visual rating, scale 0 (no effect) to 100 (complete control)
Procedure, shortened: as §1

large crabgrass = assay: Test B pre-/postemergence herbicide test; assay type: in vivo, Digitaria sanguinalis; details: for Crabgrass, Large plant response rating: postemergence, visual rating, scale 0 (no effect) to 100 (complete control)
Procedure, shortened: as §1

velvetleaf = assay: Test B pre-/postemergence herbicide test; assay type: in vivo, Abutilon theophrasti; details: for Velvetleaf plant response rating: postemergence, visual rating, scale 0 (no effect) to 100 (complete control)
Procedure, shortened: as §1

giant foxtail = assay: Test B pre-/postemergence herbicide test; assay type: in vivo, Setaria faberi; details: for Foxtail, Giant plant response rating: postemergence, visual rating, scale 0 (no effect) to 100 (complete control)
Procedure, shortened: as §1

morningglory = assay: Test B pre-/postemergence herbicide test; assay type: in vivo, Ipomoea coccinea; details: for Morningglory plant response rating: postemergence, visual rating, scale 0 (no effect) to 100 (complete control)
Procedure, shortened: (§4)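 Evaluation is visual, comparing treated with control plants on a scale where 0 means no effect and 100 means full control. Treatments were preemergence, or postemergence on seedlings 2–18 cm tall, and held 13–15 days in the greenhouse.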

ducksalad = assay: Test B flooded paddy test; assay type: in vivo, Heteranthera limosa; details: 1000 g ai/ha, visual rating, scale 0 to 100 (0 no effect, 100 complete control), 13 to 15 days
Procedure, shortened: as §2

barnyardgrass [2] = assay: Test B flooded paddy test; assay type: in vivo, Echinochloa crus-galli; details: 1000 g ai/ha, visual rating, scale 0 to 100 (0 no effect, 100 complete control), 13 to 15 days
Procedure, shortened: as §2

Surinam grass = assay: Test B pre-/postemergence herbicide test; assay type: in vivo, Urochloa decumbens; details: for Surinam Grass plant response rating: postemergence, visual rating, scale 0 (no effect) to 100 (complete control)
Procedure, shortened: as §1

blackgrass = assay: Test B postemergence herbicide test; assay type: in vivo, Alopecurus myosuroides; details: postemergence, visual rating, scale 0 (no effect) to 100 (complete control)
Procedure, shortened: as §2

rice [3] = assay: Test B pre-/postemergence herbicide test; assay type: in vivo, Oryza sativa; details: preemergence
Procedure, shortened: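 Greenhouse pot assay with simultaneous preemergence (treated seed) and postemergence (2–18 cm seedlings) applications of surfactant-containing, non-phytotoxic solvent formulations. Response scored visually 13–15 days later on a 0–100 scale, 100 meaning complete control.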

cocklebur = assay: Test B pre-/postemergence herbicide test; assay type: in vivo, Xanthium strumarium; details: for Cocklebur plant response rating: postemergence, visual rating, scale 0 (no effect) to 100 (complete control)
Procedure, shortened: as §4

barnyardgrass [4] = assay: Test B pre-/postemergence herbicide test; assay type: in vivo, Echinochloa crus-galli; details: for Barnyardgrass plant response rating: postemergence, visual rating, scale 0 (no effect) to 100 (complete control)
Procedure, shortened: as §4

rice [5] = assay: Test B flooded paddy test; assay type: in vivo, Oryza sativa; details: 1000 g ai/ha, visual rating, scale 0 to 100 (0 no effect, 100 complete control), 13 to 15 days
Procedure, shortened: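 Formulated test chemicals went onto postemergence plants measuring 2 to 18 cm, at one to four leaves. For the paddy assay, species had reached two leaves. Scoring took place 13–15 days later by eye, relative to untreated plants, using 0 for no effect up to 100 for full control.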

wheat = assay: Test B postemergence herbicide test; assay type: in vivo, Triticum aestivum; parameters: key to Wheat plant response rating: 0 = no effect, 100 = complete control; details: postemergence, visual rating, scale 0 (no effect) to 100 (complete control)
Procedure, shortened: as §3

pigweed = assay: Test B pre-/postemergence herbicide test; assay type: in vivo, Amaranthus retroflexus; details: for Pigweed plant response rating: postemergence, visual rating, scale 0 (no effect) to 100 (complete control)
Procedure, shortened: as §1

[6] = 125 g ai/ha, 0 = no effect, 100 = complete control, preemergence
[7] = 500 g ai/ha, visual rating 0-100, 0 no effect, 100 complete control, preemergence

Structure (SMILES): CCCc1nn(C(C)(C)C)cc1C(=O)Nc1cccc(C(=O)N(CC)CC)c1 [Compound 185]
- Lambsquarters plant response rating (0 to 100 scale) (lambsquarters; [6]): 20
- Plant response rating, Lambsquarters (lambsquarters; [7]): 80
- Lambsquarters plant response rating (lambsquarters; 125 g ai/ha): 60
- Lambsquarters plant response rating (lambsquarters; 500 g ai/ha): 70
- Sedge, Umbrella plant response rating [1]: 60
- Oat, Wild plant response rating (wild oat; 125 g ai/ha): 10
- Oat, Wild plant response rating (wild oat; 500 g ai/ha): 30
- Corn plant response rating (0 to 100 scale) (corn; [6]): 0
- Plant response rating, Corn (corn; [7]): 0
- Corn plant response rating (corn; 125 g ai/ha): 20
- Corn plant response rating (corn; 500 g ai/ha): 30
- Crabgrass, Large plant response rating (0 to 100 scale) (large crabgrass; [6]): 0
- Plant response rating, Crabgrass, Large (large crabgrass; [7]): 50
- Crabgrass, Large plant response rating (large crabgrass; 125 g ai/ha): 20
- Crabgrass, Large plant response rating (large crabgrass; 500 g ai/ha): 40
- Velvetleaf plant response rating (0 to 100 scale) (velvetleaf; [6]): 10
- Plant response rating, Velvetleaf (velvetleaf; [7]): 50
- Velvetleaf plant response rating (velvetleaf; 125 g ai/ha): 30
- Velvetleaf plant response rating (velvetleaf; 500 g ai/ha): 50
- Foxtail, Giant plant response rating (0 to 100 scale) (giant foxtail; [6]): 0
- Plant response rating, Foxtail, Giant (giant foxtail; [7]): 70
- Foxtail, Giant plant response rating (giant foxtail; 125 g ai/ha): 20
- Foxtail, Giant plant response rating (giant foxtail; 500 g ai/ha): 30
- Morningglory plant response rating (0 to 100 scale) (morningglory; [6]): 0
- Plant response rating, Morningglory (morningglory; [7]): 50
- Morningglory plant response rating (morningglory; 125 g ai/ha): 40
- Morningglory plant response rating (morningglory; 500 g ai/ha): 70
- Ducksalad plant response rating (ducksalad): 0
- Barnyardgrass plant response rating (barnyardgrass [2]): 0
- Surinam Grass plant response rating (0 to 100 scale) (Surinam grass; [6]): 10
- Plant response rating, Surinam Grass (Surinam grass; [7]): 20
- Surinam Grass plant response rating (Surinam grass; 125 g ai/ha): 20
- Surinam Grass plant response rating (Surinam grass; 500 g ai/ha): 30
- Blackgrass plant response rating (blackgrass; 125 g ai/ha): 0
- Blackgrass plant response rating (blackgrass; 500 g ai/ha): 0
- Rice plant response rating (0 to 100 scale) (rice [3]; 125 g ai/ha, 0 = no effect, 100 = complete control): 0
- Plant response rating, Rice (rice [3]; 500 g ai/ha, visual rating 0-100, 0 no effect, 100 complete control): 0
- Cocklebur plant response rating (0 to 100 scale) (cocklebur; [6]): 0
- Plant response rating, Cocklebur (cocklebur; [7]): 0
- Cocklebur plant response rating (cocklebur; 125 g ai/ha): 20
- Cocklebur plant response rating (cocklebur; 500 g ai/ha): 50
- Barnyardgrass plant response rating (0 to 100 scale) (barnyardgrass [4]; [6]): 0
- Plant response rating, Barnyardgrass (barnyardgrass [4]; [7]): 70
- Barnyardgrass plant response rating (barnyardgrass [4]; 125 g ai/ha): 30
- Barnyardgrass plant response rating (barnyardgrass [4]; 500 g ai/ha): 50
- Rice plant response rating (rice [5]): 0
- Wheat plant response rating (wheat; 125 g ai/ha): 0
- Wheat plant response rating (wheat; 500 g ai/ha): 10
- Pigweed plant response rating (0 to 100 scale) (pigweed; [6]): 0
- Plant response rating, Pigweed (pigweed; [7]): 100
- Pigweed plant response rating (pigweed; 125 g ai/ha): 60
- Pigweed plant response rating (pigweed; 500 g ai/ha): 80
